Results on one compound are retold here after patent publication US8808715B1, “Methods and compositions for modulating keratinocyte function” (Georgia Regents Research Institute, Inc, priority 2004, dated 2014).

One experiment concerns the target T1, PLD-2 (Homo sapiens, UniProt O14939).
T1 construct: purchased Onyx Pharmaceuticals; host or cells: Sf9 insect cells (membrane preparation)
The experiment in a line: In vitro assay of phosphatidylglycerol formation by PLD-2 (transphosphatidylation). The experiment is classed as biochemical. How it is done:
FIGS. 5 A and B illustrate that glycerol serves as a substrate for phospholipase D in the transphosphatidylation reaction in vitro. Liposomes were prepared from [^3H-dipalmitoyl]phosphatidylcholine, phosphatidylethanolamine, phosphatidylcholine and phosphatidylinositol 4,5-bisphosphate by sonication. Glycerol at the indicated concentrations in the absence (A) or presence of 1% ethanol (B) was added to the reaction mix. Reactions were initiated by the addition of Sf9 PLD2-overexpressing membranes (1 μg protein), incubated for 30 minutes at 37° C. and terminated by the addition of 0.2% SDS (±5 mM EDTA). Lipids were extracted, separated, and quantified. The figure is representative of at least two additional experiments. There was some variability in the absolute levels of phosphatidic acid (PA), PG and phosphatidylethanol (PEt) formed, likely due to variations in the extent of formation of multilamellar vesicles during sonication.
PLD-2 activity was measured in vitro with [^3H-palmitoyl]phosphatidylcholine as substrate. […] Lipids were extracted according to the method of Bligh and Dyer and radiolabeled phospholipids separated and quantified, as described in W. B. Bollag, “Measurement of phospholipase D activity, Methods” Mol. Biol. 105 (1998) 151-160, incorporated herein by reference.

The subject of another experiment is keratin 5 promoter. In words: Co-transfection analysis, keratin 5 promoter-luciferase reporter. It is filed as cell-based, mouse. The conditions noted are these: glycerol 0.2%, 24 hours. How it is done:
FIGS. 15A-B illustrate that glycerol, but not xylitol or sorbitol, inhibits DNA synthesis and enhances the inhibitory effect of an elevated extracellular Ca^2+ concentration. (A) Near-confluent keratinocytes were incubated for 24 hours with 0.02 or 0.1% glycerol and DNA synthesis measured as the incorporation of [^3H] thymidine incorporation into DNA. (B) Near-confluent keratinocytes were incubated for 24 hours with the indicated concentrations of glycerol (G, squares) or equivalent concentrations of xylitol (X, circles) in SFKM containing 25 μM (control; open symbols) or 125 μM Ca^2+ (Ca^2+; closed symbols). (C) Near-confluent keratinocytes were incubated for 24 hours with the indicated concentrations of glycerol (G) or equivalent concentrations of sorbitol (S, triangles) in SFKM containing 25 μM (control; open symbols) or 125 μM Ca^2+ (Ca^2+; closed symbols) for 24 hours. [^3H]Thymidine incorporation into DNA was then determined. Values represent the means±SEM of 4 to 5 separate experiments performed in duplicate; *p<0.05, **p<0.01 versus the control value, †p<0.05 versus the value in the presence of Ca^2+ alone. […] After 24 hours cells were refed with medium containing no addition (control) or 0.2% glycerol for an additional 24 hours. Luciferase activity was then measured using a Dual Luciferase kit as directed by the manufacturer. […] The blots were quantified using the Kodak molecular imaging software. […]
The keratin 5 and keratin 10 promoter-luciferase constructs were provided by of Dr. Bogi Andersen (University of California, Irvine, Calif.); the involucrin promoter-luciferase construct was provided by Dr. Daniel Bikle (University of California, San Francisco, Calif.). […] Luciferase activity was then measured using the Dual Luciferase Reporter Assay kit (Promega, Madison, Wis.) as directed by the manufacturer.

For experiment [1], the system named is rapidly dividing keratinocytes. In words: Assay of DNA synthesis ([3H]thymidine incorporation) in rapidly dividing keratinocytes. The experiment is classed as cell-based. The note with it: 24 hours. How it is done: Keratinocytes were prepared from ICR CD-I outbred mice in accordance with a protocol approved by the Institutional Animal Care and Use Committee. Briefly, the skins were harvested and incubated overnight in 0.25% trypsin at 4° C. The epidermis and dermis were separated and basal keratinocytes scraped from the underside of the epidermis. The cells were collected by centrifugation and incubated overnight in an atmosphere of 95% air/5% carbon dioxide at 37° C. in plating medium as described in Dodd M E, Ristich V L, Ray S, Lober R M, Bollag W B (2005) Regulation of protein kinase D during differentiation and proliferation of primary mouse keratinocytes. J Invest Dermatol 125:294-306, incorporated herein by reference. The plating medium was replaced with serum-free keratinocyte medium (SFKM) also as in Dodd, et al., and the cells were refed every 1-2 days with fresh medium until use.
[^3H]Thymidine incorporation into DNA was determined as a measure of DNA synthesis as previously described by Griner, et al., above. Near-confluent keratinocyte cultures were incubated for 24 hours in SFKM containing the indicated additions. PG was added in the form of liposomes prepared by bath sonication of dried PG in SFKM to make a stock solution of 2 mg/mL. [^3H]Thymidine at a final concentration of 1 μCi/mL was then added to the cells for an additional 1-hour incubation. Reactions were terminated by washing with PBS- and macromolecules precipitated with ice-cold 5% trichloroacetic acid. Cells were solubilized in 0.3 M NaOH and the radioactivity incorporated into DNA quantified by liquid scintillation spectroscopy.
[^3H]Thymidine incorporation was used as a measure of DNA synthesis and was performed as described in Example 2. Liposomes containing PG and functional derivatives thereof were prepared by bath sonication as described in Example 2, with the exception that different concentrations of material were employed.
For orientation: Dividing cells build labelled thymidine or BrdU into new DNA.

In the next experiment the test system is ICR CD1 mice. In words: Wound healing of full-thickness skin punch biopsies. The conditions noted are these: topical; 2M glycerol in water, or 100 μg/mL phosphatidylglycerol liposomes in PBS-. The experiment is classed as in vivo, mouse. From the text: This example presents recent data on the effects of glycerol and phosphatidylglycerol treatment on wound healing obtained in ICR CD1 mice. Two full-thickness skin punch biopsies of˜4 mm were made on the backs of a total of sixteen mice. […] The rate of wound healing was then followed over four days by digital photography and computer image analysis.

The next experiment relates to AQP3 null mutant mouse. The note with it: studies of the AQP3 null mutant mouse; cited from earlier work.

T1 sequence (O14939 whole entry, species assumed): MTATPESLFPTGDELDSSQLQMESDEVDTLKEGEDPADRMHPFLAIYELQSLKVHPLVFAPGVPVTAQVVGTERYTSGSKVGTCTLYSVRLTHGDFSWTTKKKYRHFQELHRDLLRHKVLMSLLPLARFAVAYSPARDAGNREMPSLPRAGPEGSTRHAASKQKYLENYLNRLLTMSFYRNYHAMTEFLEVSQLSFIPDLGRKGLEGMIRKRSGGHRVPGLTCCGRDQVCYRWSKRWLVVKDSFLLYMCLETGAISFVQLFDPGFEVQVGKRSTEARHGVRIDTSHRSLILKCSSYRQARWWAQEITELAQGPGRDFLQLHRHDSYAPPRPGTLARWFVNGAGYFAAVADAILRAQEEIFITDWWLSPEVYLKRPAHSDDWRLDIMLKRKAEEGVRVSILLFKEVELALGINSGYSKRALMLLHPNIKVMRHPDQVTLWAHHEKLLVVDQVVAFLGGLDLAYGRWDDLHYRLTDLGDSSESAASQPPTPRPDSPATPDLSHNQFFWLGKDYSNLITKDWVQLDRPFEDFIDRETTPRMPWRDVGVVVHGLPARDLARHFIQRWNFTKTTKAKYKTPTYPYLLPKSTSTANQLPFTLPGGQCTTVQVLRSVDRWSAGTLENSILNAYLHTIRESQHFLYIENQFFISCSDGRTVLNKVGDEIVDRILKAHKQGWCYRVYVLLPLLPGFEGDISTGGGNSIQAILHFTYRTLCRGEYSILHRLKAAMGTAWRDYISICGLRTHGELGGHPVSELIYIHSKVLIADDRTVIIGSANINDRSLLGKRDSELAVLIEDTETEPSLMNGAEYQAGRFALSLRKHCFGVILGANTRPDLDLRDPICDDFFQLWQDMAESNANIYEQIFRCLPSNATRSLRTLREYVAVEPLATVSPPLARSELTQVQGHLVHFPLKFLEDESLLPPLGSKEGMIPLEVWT

In the case of `OCC(O)CO` [glycerol], the “formation of PG from phosphatidylcholine (glycerol as substrate for transphosphatidylation)” value on PLD-2 (PLD2-overexpressing Sf9 membranes, 30 minutes at 37° C.) is reported as “PLD2 catalyzed the formation of PG from phosphatidylcholine in the presence of glycerol”. The “competition with ethanol in the transphosphatidylation reaction” value on PLD-2 (in presence of 1% ethanol) is recorded as “could compete with the primary alcohol ethanol to generate PG in place of phosphatidylethanol”. Further, the “reduction in keratin 5 promoter activity” value in the experiment on keratin 5 promoter (empty vector) was about 9%; in the experiment on keratin 5 promoter (keratinocytes transfected with AQP3) it was about 47%. In experiment [1] (125 μM Ca2+ medium), the “effect on DNA synthesis in presence of 125 μM Ca2+” value is “enhanced the inhibitory effect of 125 μM Ca^2+”. For the same compound, in experiment [1] (control (25 μM Ca2+) medium), the “effect on DNA synthesis ([3H]thymidine incorporation into DNA)” value is on record as “inhibited DNA synthesis”. Moreover, the “lowest concentration that significantly inhibited DNA synthesis” value in experiment [1] (0.02% = 2.73 mM) was found to be 0.02%. Moreover, the “rate of wound healing (percentage on day 4 relative to day 1)” value in the experiment on ICR CD1 mice is listed as “improved the rate of wound healing”. Further, the “correction of the epidermal phenotype of the knockout model” value with AQP3 null mutant mouse was “could correct the epidermal phenotype”.
